In PubChem BioAssay AID1259407 (Chemical Carcinogenesis Research Information System (CCRIS), 2018):
Active and inactive are the calls of the source. No rule for the calls is given here.

Test system: CCRIS mutagenicity, Ames/micronucleus/aberration tests
Test: CCRIS mutagenicity studies
[1] = Test System: AMES SALMONELLA TYPHIMURIUM, Strain/Indicator: TA97, Metabolic Activation: HAMSTER, LIVER, S-9, AROCLOR 1254 (10%), Method: PREINCUBATION
[2] = Test System: AMES SALMONELLA TYPHIMURIUM, Strain/Indicator: TA97, Metabolic Activation: NONE, Method: PREINCUBATION
[3] = Test System: AMES SALMONELLA TYPHIMURIUM, Strain/Indicator: TA97, Metabolic Activation: RAT, LIVER, S-9, AROCLOR 1254 (10%), Method: PREINCUBATION
[4] = Test System: AMES SALMONELLA TYPHIMURIUM, Strain/Indicator: TA98, Metabolic Activation: HAMSTER, LIVER, S-9, AROCLOR 1254 (10%), Method: PREINCUBATION
[5] = Test System: AMES SALMONELLA TYPHIMURIUM, Strain/Indicator: TA98, Metabolic Activation: NONE, Method: PREINCUBATION
[6] = Test System: AMES SALMONELLA TYPHIMURIUM, Strain/Indicator: TA98, Metabolic Activation: RAT, LIVER, S-9, AROCLOR 1254 (10%), Method: PREINCUBATION
[7] = Test System: AMES SALMONELLA TYPHIMURIUM, Strain/Indicator: TA100, Metabolic Activation: HAMSTER, LIVER, S-9, AROCLOR 1254 (10%), Method: PREINCUBATION
[8] = Test System: AMES SALMONELLA TYPHIMURIUM, Strain/Indicator: TA100, Metabolic Activation: NONE, Method: PREINCUBATION
[9] = Test System: AMES SALMONELLA TYPHIMURIUM, Strain/Indicator: TA100, Metabolic Activation: RAT, LIVER, S-9, AROCLOR 1254 (10%), Method: PREINCUBATION
[10] = Test System: AMES SALMONELLA TYPHIMURIUM, Strain/Indicator: TA1535, Metabolic Activation: HAMSTER, LIVER, S-9, AROCLOR 1254 (10%), Method: PREINCUBATION
[11] = Test System: AMES SALMONELLA TYPHIMURIUM, Strain/Indicator: TA1535, Metabolic Activation: NONE, Method: PREINCUBATION
[12] = Test System: AMES SALMONELLA TYPHIMURIUM, Strain/Indicator: TA1535, Metabolic Activation: RAT, LIVER, S-9, AROCLOR 1254 (10%), Method: PREINCUBATION

With `COc1ccc(N)cc1N` the mutagenic call [1] was “active; positive”, the mutagenic call [2] was “inactive; negative” and the mutagenic call (Test System: AMES SALMONELLA TYPHIMURIUM, Strain/Indicator: TA97, Metabolic Activation: RAT, LIVER, S-9, AROCLOR 1254 (4 OR 10%), Method: STANDARD PLATE) was “active; positive”. The mutagenic call [3] was “active; positive”, the mutagenic call [4] was “active; positive” and the mutagenic call [5] was “active; positive”. For the same compound, the mutagenic call [6] was “active; positive”, the mutagenic call [7] was “active; positive” and the mutagenic call [8] was “inactive; negative”. The mutagenic call [9] was “active; positive”, the mutagenic call [10] was “inactive; negative” and the mutagenic call [11] was “inactive; negative”. For the same compound, the mutagenic call [12] was “inactive; negative”, the mutagenic call (Test System: AMES SALMONELLA TYPHIMURIUM, Strain/Indicator: TA1537, Metabolic Activation: RAT, LIVER, S-9, AROCLOR 1254 (4 OR 10%), Method: STANDARD PLATE) was “active; positive” and the mutagenic call (Test System: AMES SALMONELLA TYPHIMURIUM, Strain/Indicator: TA1538, Metabolic Activation: RAT, LIVER, S-9, AROCLOR 1254 (4 OR 10%), Method: STANDARD PLATE) was “active; positive”. The mutagenic call (Test System: CHINESE HAMSTER V-79, Strain/Indicator: V-79/6-THIOGUANINE, Metabolic Activation: NONE, Method: SUSPENSION/PLATE) was “active; positive”, the mutagenic call (Test System: CHINESE HAMSTER V-79, Strain/Indicator: V-79/6-THIOGUANINE, Metabolic Activation: RAT, LIVER, S-9, PHENOBARBITAL AND BETA-NAPHTHOFLAVONE, Method: SUSPENSION/PLATE) was “inactive; negative” and the mutagenic call (Test System: E. COLI, Strain/Indicator: WP2 UVRA, Metabolic Activation: HAMSTER, LIVER, S-9, AROCLOR 1254, Method: STANDARD PLATE) was “inactive; negative”. For the same compound, the mutagenic call (Test System: E. COLI, Strain/Indicator: WP2 UVRA, Metabolic Activation: HAMSTER, LIVER, S-9, Method: STANDARD PLATE) was “inactive; negative”, the mutagenic call (Test System: E. COLI, Strain/Indicator: WP2 UVRA, Metabolic Activation: MOUSE, LIVER, S-9, AROCLOR 1254, Method: STANDARD PLATE) was “inactive; negative” and the mutagenic call (Test System: E. COLI, Strain/Indicator: WP2 UVRA, Metabolic Activation: MOUSE, LIVER, S-9, Method: STANDARD PLATE) was “inactive; negative”. The mutagenic call (Test System: E. COLI, Strain/Indicator: WP2 UVRA, Metabolic Activation: NONE, Method: STANDARD PLATE) was “inactive; negative”, the mutagenic call (Test System: E. COLI, Strain/Indicator: WP2 UVRA, Metabolic Activation: RAT, LIVER, S-9, AROCLOR 1254, Method: STANDARD PLATE) was “inactive; negative” and the mutagenic call (Test System: E. COLI, Strain/Indicator: WP2 UVRA, Metabolic Activation: RAT, LIVER, S-9, Method: STANDARD PLATE) was “inactive; negative”. The mutagenic call (Test System: MOUSE LYMPHOMA, Strain/Indicator: L5178Y (TK+/TK-), Metabolic Activation: NONE, Method: SUSPENSION/PLATE) was “active; positive” and the mutagenic call (Test System: MOUSE LYMPHOMA, Strain/Indicator: L5178Y (TK+/TK-), Metabolic Activation: RAT, LIVER, S-9, AROCLOR 1254, Method: SUSPENSION/PLATE) was “active; positive”.

In the case of `CCCCCCCCOc1ccc(C(=O)O)cc1`, the mutagenic call [1] is reported as “inactive; negative”, the mutagenic call (Test System: AMES SALMONELLA TYPHIMURIUM, Strain/Indicator: TA97, Metabolic Activation: HAMSTER, LIVER, S-9, AROCLOR 1254 (30%), Method: PREINCUBATION) is reported as “inactive; negative” and the mutagenic call [2] is reported as “inactive; negative”. For the same compound, the mutagenic call [3] was “inactive; negative”, the mutagenic call (Test System: AMES SALMONELLA TYPHIMURIUM, Strain/Indicator: TA97, Metabolic Activation: RAT, LIVER, S-9, AROCLOR 1254 (30%), Method: PREINCUBATION) was “inactive; negative” and the mutagenic call [4] was “inactive; negative”. For the same compound, the mutagenic call (Test System: AMES SALMONELLA TYPHIMURIUM, Strain/Indicator: TA98, Metabolic Activation: HAMSTER, LIVER, S-9, AROCLOR 1254 (30%), Method: PREINCUBATION) was “inactive; negative”, the mutagenic call [5] was “inactive; negative” and the mutagenic call [6] was “inactive; negative”. The mutagenic call (Test System: AMES SALMONELLA TYPHIMURIUM, Strain/Indicator: TA98, Metabolic Activation: RAT, LIVER, S-9, AROCLOR 1254 (30%), Method: PREINCUBATION) was “inactive; negative”, the mutagenic call [7] was “inactive; negative” and the mutagenic call (Test System: AMES SALMONELLA TYPHIMURIUM, Strain/Indicator: TA100, Metabolic Activation: HAMSTER, LIVER, S-9, AROCLOR 1254 (30%), Method: PREINCUBATION) was “inactive; negative”. The mutagenic call [8] was “inactive; negative”, the mutagenic call [9] was “inactive; negative” and the mutagenic call (Test System: AMES SALMONELLA TYPHIMURIUM, Strain/Indicator: TA100, Metabolic Activation: RAT, LIVER, S-9, AROCLOR 1254 (30%), Method: PREINCUBATION) was “inactive; negative”. For the same compound, the mutagenic call [10] was “inactive; negative”, the mutagenic call (Test System: AMES SALMONELLA TYPHIMURIUM, Strain/Indicator: TA1535, Metabolic Activation: HAMSTER, LIVER, S-9, AROCLOR 1254 (30%), Method: PREINCUBATION) was “inactive; negative” and the mutagenic call [11] was “inactive; negative”. The mutagenic call [12] was “inactive; negative” and the mutagenic call (Test System: AMES SALMONELLA TYPHIMURIUM, Strain/Indicator: TA1535, Metabolic Activation: RAT, LIVER, S-9, AROCLOR 1254 (30%), Method: PREINCUBATION) was “inactive; negative”.

`CCCCCC(=O)CC` was tested, and the mutagenic call (Test System: CHINESE HAMSTER V-79, Strain/Indicator: V-79 (HPRT)/6-THIOGUANINE, Metabolic Activation: NONE, Method: STANDARD PLATE) was “inactive; negative” and the mutagenic call (Test System: CHINESE HAMSTER V-79, Strain/Indicator: V-79 (HPRT)/6-THIOGUANINE, Metabolic Activation: RAT LIVER S-9, Method: STANDARD PLATE) was “inactive; negative”.

`CCCCN(N=O)C(=O)N(C)C` was tested, and the mutagenic call (Test System: E. COLI, Strain/Indicator: WP2 UVRA, Metabolic Activation: NONE, Method: PREINCUBATION) was “active; positive” and the mutagenic call (Test System: E. COLI, Strain/Indicator: WP2 UVRA, Metabolic Activation: RAT, LIVER, S-9, PHENOBARBITAL AND 5,6-BENZOFLAVONE, Method: PREINCUBATION) was “active; positive”.

For `COc1c2ccoc2nc2c(O)cccc12`, the mutagenic call (Test System: AMES SALMONELLA TYPHIMURIUM, Strain/Indicator: TA98, Metabolic Activation: NONE, Method: STANDARD PLATE) was “inactive; negative” and the mutagenic call (Test System: AMES SALMONELLA TYPHIMURIUM, Strain/Indicator: TA98, Metabolic Activation: RAT LIVER S-9, PHENOBARTITAL, Method: STANDARD PLATE) was “active; positive”.
